Test results as given in patent US7253207B2, “Quinones as disease therapies” (Cellgate, Inc., priority 1999, dated 2007).
Like-named read-outs stand apart in the source and are kept apart here. *1 amine or outer side, *2 acyl side, *3 side chain or, on linkers, in order; H or OH if unused. Where a SMILES comes first, the peptide text is derived from it. [ ]: non-standard residue; d: D form. The star is where a group is joined. X1 = CC1(C)OC2=C(CC1O*)C(=O)C(=O)c1ccccc12; Morpholide = C1CN(*)CCO1; CO = O=C([*:1])[*:2]; βAla = NCCC(=O)O

Columns and labels:
A549 = test: MTT assay, A549 lung tumor cells; format: cell-based; conditions: Homo sapiens, read-out: ID50 (μM) of different Tumor cells Lung A549
Protocol: (§1) Cell Culture: The human lung adenocarcinoma cell line, A549, and human prostatic cancer cell line, DUPRO, were a gift from Dr. M. Eileen Dolan, University of Chicago, Department of Medicine. A549 was grown in Ham's F-12K medium (Fisher Scientific, Itasca, Ill.) supplemented with 10% fetal bovine serum and 2 mM L-glutamine. DUPRO was grown in RPMI-1640 supplemented with 10% fetal bovine serum. The human colon carcinoma cell line, HT29, and the human breast carcinoma cell line, MCF7, were obtained from the American Type Culture Collection, Rockville, Md. HT29 cells were grown in McCoy's 5A medium (Gibco, BRL, Gaithersburg, Md.) supplemented with 10% fetal bovine serum. MCF7 cells were grown in Richter's Improved Modified Eagle's medium supplemented with 10% fetal bovine serum and 2.2 g/L sodium bicarbonate. The human prostate adenocarcinoma cell lines, LNCAP, PC-3 and DU145, were gifts from Dr. George Wilding, University of Wisconsin Comprehensive Cancer Center and the Department of Medicine, and were grown in Dulbecco's Modified Eagle's medium supplemented with a 5% fetal bovine serum. The malignant glioma cell line, U251MG NCI was obtained from the brain tumor tissue bank at the University of California, San Francisco Department of Neurosurgery, and was grown in Dulbecco's Modified Eagle's medium supplemented with 10% fetal bovine serum. DUPRO, A549 and MCF7 cells were grown in 100 units/mL penicillin and 100 μg/mL streptomycin. HT29 and U251MG NCI cells were grown in 50 g/μL gentamycin. LNCAP, PC-3 and DU145 cells were maintained in 1% antibiotic antimycotic solution (Sigma, St. Louis, Mo.). All cell cultures were maintained at 37° C. in 5% CO2/95% humidified air.
(§2) MTT assay. Exponentially growing monolayer cells were plated in 96 well plates at a density of 500 cells/well and allowed to grow for 24 h. Serially diluted drug solutions were added such that the final drug concentrations in the treatment media were between 0 and 35 μM. Cells were incubated with drug at either 4 hr or 72 hr. After 4 hr and 72 hr treatment, drugs were removed, fresh media (without) drug (100 uL) was added and cells were incubated for 6 days. After six days, 25 μL of a Dulbecco's phosphate-buffered saline solution containing 5 mg/mL of MTT (Thiazolyl blue) (Sigma) was added to each well and incubated for 4 h at 37° C. Then 100 μL of lysis buffer (20% sodium dodecyl sulfate, 50% N,N-dimethylformamide and 0.8% acetic acid, pH 4.7) was added to each well and incubated for an additional 22 h. A microplate reader (E max, Molecular Devices, Sunnyvale, Calif.) set at 570 nm was used to determine the optical density. Results were plotted as a ratio of the optical density in drug treated wells to the optical density in wells treated with vehicle alone. Plotting and estimation of ID50 values were accomplished with manufacturer supplied software.

DUPRO = test: MTT assay, DUPRO prostate tumor cells; format: cell-based, human; conditions: Table 1, treatment time not stated
Protocol: as §1
MTT assay. Exponentially growing monolayer cells were plated in 96 well plates at a density of 500 cells/well and allowed to grow for 24 h. Serially diluted drug solutions were added such that the final drug concentrations in the treatment media were between 0 and 35 μM. […] A microplate reader (E max, Molecular Devices, Sunnyvale, Calif.) set at 570 nm was used to determine the optical density. […]

PC-3 = test: MTT assay, PC-3 prostate tumor cells; format: cell-based, human
Protocol: as §1, §2

DU145 = test: MTT assay, DU145 prostate tumor cells; format: cell-based, human; conditions: Table 1; for ID50 (μM) of different prostate cells DU145: MTT assay, treatment time not stated
Protocol: as §1, §2

MCF7 = test: MTT assay, MCF7 breast tumor cells; format: cell-based, human; conditions: Table 2, treatment time not stated
Protocol: as §1, §2

HT-29 = test: MTT assay, HT-29 colon tumor cells; format: cell-based; conditions: Homo sapiens, Table 2, treatment time not stated, read-out: ID50 (μM) of different Tumor cells Colon HT-29
Protocol: as §1, §2

U251-MG = test: MTT assay, U251-MG brain tumor cells; format: cell-based, human
Protocol: as §1, with “The malignant glioma cell line, U251MG NCI was obtained from the brain tumor tissue bank at the University of California, San Francisco Department of Neurosurgery, and was grown in Dulbecco's Modified Eagle's medium supplemented with 10% fetal bovine serum. DUPRO, A549 and MCF7 cells were grown in 100 units/mL penicillin and 100 μg/mL streptomycin. HT29 and U251MG NCI cells were grown in 50 g/μL gentamycin. LNCAP, PC-3 and DU145 cells were maintained in 1% antibiotic antimycotic solution (Sigma, St. Louis, Mo.). All cell cultures were maintained at 37° C. in 5% CO2/95% humidified air.” left out
MTT assay. […] A microplate reader (E max, Molecular Devices, Sunnyvale, Calif.) set at 570 nm was used to determine the optical density. […]

[1] = Table 2, treatment time not stated
[2] = Homo sapiens, PC-3, Table 1, MTT assay, treatment time not stated, read-out: ID50 (μM) of different prostate cells PC-3

SMILES	IC50 (A549; [1]) [µM]	IC50 (PC-3; [2]) [µM]	IC50 (HT-29) [µM]	ID50 (μM) of different Tumor cells Breast MCF7 (MCF7) [µM]	also measured
O=C1C=C(OCCCCCCCc2ccc(Nc3c4ccccc4nc4ccccc34)cc2)c2ccccc2C1=O [SL-11064, Quinone-anilinoacridine]	9.3	0.7	–	–	ID50 (μM) of different prostate cells DUPRO (DUPRO): 2.2 µM; ID50 (μM) of different prostate cells DU145 (DU145): 0.13 µM
CC(C)CC(NC(=O)C(CCCCN)NC(=O)C(CO)NC(=O)N1CCOCC1)C(=O)NC(CCC(N)=O)C(=O)NCCC(=O)OC1CC2=C(OC1(C)C)c1ccccc1C(=O)C2=O (stereo not drawn) [SL-11147, Morpholino-Ser-Lys-Leu-Gln-β-Ala-β-Lapachone] ({Morpholide-CO}-SKLQ[βAla]-X1; configuration not given here)	–	–	–	–	IC50 (PC-3; Table 1, 4 hr, read-out: ID50 (μM) PC-3 (4 hr)): 6.3 µM; IC50 (PC-3; Table 1, 72 hr, read-out: ID50 (μM) PC-3 (72 hr)): 1.24 µM; IC50 (DU145; 4 hr, read-out: ID50 (μM) DU145 (4 hr)): 28.1 µM; IC50 (DU145; 72 hr, read-out: ID50 (μM) DU145 (72 hr)): 2.01 µM
CN1CCN(c2ccc3nc(-c4ccc5nc(-c6ccc(O)cc6)[nH]c5c4)[nH]c3c2)CC1 [SL-11063]	–	–	–	–	IC50 (A549; Table 4, non-quinone compounds): > 31.2 µM; IC50 (PC-3; Homo sapiens, PC-3, Table 3, non-quinone structure, MTT assay, read-out: ID50 (μM) of different prostate cells PC-3): > 31.2 µM
O=C1C=C(OCCCCCCO)c2ccccc2C1=O [SL-11051]	17.2	17.1	20	–	ID50 (μM) of different prostate cells DUPRO (DUPRO): 19.3 µM; ID50 (μM) of different prostate cells DU145 (DU145): 11.16 µM
N#Cc1ccc(OCCCCCCOC2=CC(=O)C(=O)c3ccccc32)cc1 [SL-11062]	18.6	1.71	–	–	–
O=C1C=C(OCCCCCCOC2=CC(=O)c3ccccc3C2=O)c2ccccc2C1=O [SL-11065]	2.13	1.4	–	–	–
O=C1C=C(OCCCCCCOc2ccc(OC3OC(CO)C(O)C(O)C3O)cc2)c2ccccc2C1=O (centres unmarked) [SL-11066]	> 31.2	> 31.2	–	–	–
O=C1C=C(OCCCCCCOc2ccccc2)c2ccccc2C1=O [SL-11068]	24	1.5	–	–	–
COC(=O)c1cc(NC(=O)CCCCOC2=CC(=O)C(=O)c3ccccc32)cn1C [SL-11052]	26.9	–	–	–	–
CN(C)c1cccc(OC(=O)CCCCOC2=CC(=O)C(=O)c3ccccc32)c1 [SL-11074]	–	4.6	–	–	–
O=C(OCCCCCCOC1=CC(=O)C(=O)c2ccccc21)OCCCCCCOC1=CC(=O)C(=O)c2ccccc21 [SL-11053]	7.39	–	2.8	–	–
Cl.O=C1C=C(OCCCCCNC2CCCCC2)c2ccccc2C1=O [SL-11060]	> 31.2	–	> 31.2	17.23	ID50 (μM) of different Tumor cells Brain U251-MG (U251-MG; [1]): >31.25 µM
CC(C)(C)C(=O)OC1=CC(=O)C(=O)c2ccccc21 [SL-11054]	> 31.2	–	> 31.2	–	–
NCCCCCC(=O)OCCCCCCOC1=CC(=O)C(=O)c2ccccc21 [SL-11075]	–	2	–	–	–
O=C1C=C(OCCCCCNc2c3ccccc3nc3ccccc23)c2ccccc2C1=O [SL-11059, Acridine-quinone]	15	4.3	10.1	–	–
CC1(C)CCC2=C(O1)c1ccccc1C(=O)C2=O [SL-11058]	–	–	–	–	ID50 (μM) of different Tumor cells Brain U251-MG (U251-MG; Table 4, non-quinone compounds): >31.25 µM

Further lines, with some results ahead:

IC50 (A549; [1]) [µM]	IC50 (PC-3; [2]) [µM]	IC50 (HT-29) [µM]	SMILES	ID50 (μM) of different Tumor cells Breast MCF7 (MCF7) [µM]	also measured
> 31.2	4.2	22.1	CCCCN(CC1=C(Br)C(=O)C(=O)c2ccccc21)C(C)=O [SL-11095]	20.6	–
19.8	2.4	6.05	CCCCN(CC1=CC(=O)C(=O)c2ccccc21)C(C)=O [SL-11087]	4.0	–
28	5.9	5.7	O=C1C=C(CCCCCCCCc2ccc(Nc3c4ccccc4nc4ccccc34)cc2)c2ccccc2C1=O [SL-11125, Quinone-acridine]	5.1	ID50 (μM) of different prostate cells DUPRO (DUPRO): 7.9 µM; ID50 (μM) of different prostate cells DU145 (DU145): 0.13 µM
> 31.2	> 31.2	> 31.2	CCCCN(CC1=CC(=O)C(=O)c2ccccc21)C(=O)C(F)(F)F [SL-11088]	>31.25	–
17.4	3.6	3.4	CCCCN(CC1=CC(=O)C(=O)c2ccccc21)C(=O)CCC(=O)N1CCOCC1 [SL-11096]	3.8	–
–	11	–	CCCCN/C=C1\C=C(O)C(=O)c2ccccc21 [SL-11089]	>31.25	–
